According to patent publication US9840509B2, “Heterocyclic compounds” (CADILA HEALTHCARE LIMITED, priority 2014, dated 2017):

Experiments:
CYP 2C19 = molecular target: T1, CYP 2C19 (Homo sapiens, UniProt P33261); experiment: CYP inhibition in human liver microsomes, 2C19; format: in vitro ADME; settings: pH 7.4, @ 10 μM concn
T1 construct: from tissue; host or cells: human liver microsomes
Experimental: (§1) CYP Inhibition Studies: CYP inhibition studies were performed with test compounds, at two concentrations ([…] and 10 μM), using human liver microsomes (Yao, M., Zhu, M., Sinz, M. W., Zhang, H., Humphreys, W. F., Rodrigues, A. D and Dai, R., Journal of Pharmaceutical and Biomedical Analysis, 2007, 44, 211-223; Walsky, R. L and Obach, R. S., Drug Metab. Dispos., 2004, 32, 647-660). Human liver microsomes were mixed with 100 mM phosphate buffer (pH 7.4) and probe substrate and warmed to […] in microcentrifuge tubes. Aliquots of this mixture (499 μL) were transferred to each pre-labeled microcentrifuge tubes, followed by addition of the 1 μL of inhibitors (test compound/CYP-specific positive control inhibitor) or control solvent (DMSO). Aliquots of this mixture (90 μL) were transferred to each pre-labeled microcentrifuge tubes in duplicate. Final solvent concentrations were 0.2% (v/v) or less. Incubations were commenced with the addition of 10 μL NADPH stock (assay concentration, 1 mM) to a final incubation volume of 100 μL and incubated in shaking water bath (at 37° C. and 100 rpm), for the period defined in Tables 1. Incubations were terminated by addition of 400 μL of termination solvent (CH3CN) containing internal standard. The terminated samples were vortex-mixed, centrifuged at 10000 rpm for 5 min and supernatant transferred into HPLC vials for LC-MS/MS analysis to monitor metabolites produced by marker CYP reactions. […] Animals

[1] = molecular target: T2, recombinant purified human BTK (Homo sapiens, UniProt Q06187); experiment: In vitro BTK kinase assay on ADP Glo platform; format: biochemical; settings: 2 hr room temperature, read-out: In-vitro BTK inhibitory activity: IC50
T2 construct: purchased SignalChem, USA
Experimental: Testing of Compounds of the Invention Biological Studies: In vitro BTK Inhibitory Activity Assay:
In vitro BTK inhibitory activity of test compounds were screened using BTK kinase assay on ADP Glo platform (Li, H., Totoritis, R. D., Lor, L. A., Schwartz, B., Caprioli, P., Jurewicz, A. J and Zhang, G., Assay Drug Dev. Technol., 2009, 7(6), 598-605). Briefly, fixed amount of recombinant purified human BTK (3 ng/reaction from SignalChem, USA) were incubated with increasing concentration of test compounds, in 1× kinase reaction buffer (40 mM Tris-Cl, pH7.5, 20 mM MgCl2, 2 mM MnCl2, 0.1 mg/ml BSA and 50 μM DTT). Enzymatic reaction was initiated by adding a substrate cocktail containing 50 µM of ATP (final concentration) and […] of polyGln4Tyr1 (Signal Chem) in total 25 μl of reaction, in round bottom white 96 well plate. The reaction mixture was incubated at room temperature for 2 hr. After 2 hr of incubation, 10 μl of the reaction mix was mixed with […] of ADP Glo reagent, in another round bottom white 96 well plate and incubated at room temperature for 40 min. This was followed by addition of kinase detection reagent (20 μl per reaction) and incubation at room temperature for 30 min. Finally, plate was read for luminescence at an integration time of 500 millisecond per well. Data were plotted taking Enzyme with no inhibitor set as the 100% kinase activity and for dose response curve, % Kinase activity was plotted against conc on Log scale and IC50 was determined by non linear curve fitting method using GraphPad Prism software 6. The in vitro BTK inhibitory activity (IC50) for representative compounds are listed in […]

CYP 2D6 = molecular target: T3, CYP 2D6 (Homo sapiens, UniProt P10635); experiment: CYP inhibition in human liver microsomes, 2D6; format: in vitro ADME; settings: pH 7.4, @ 10 μM concn
T3 construct: from tissue; host or cells: human liver microsomes
Experimental: as §1

CYP 3A4 = molecular target: T4, CYP 3A4 (Homo sapiens, UniProt P08684); experiment: CYP inhibition in human liver microsomes, 3A4; format: in vitro ADME; settings: pH 7.4, @ 10 μM concn
T4 construct: from tissue; host or cells: human liver microsomes
Experimental: as §1

CYP 1A2 = molecular target: T5, CYP 1A2 (Homo sapiens, UniProt P05177); experiment: CYP inhibition in human liver microsomes, 1A2; format: in vitro ADME; settings: pH 7.4, @ 10 μM concn
T5 construct: from tissue; host or cells: human liver microsomes
T5 sequence (P05177 1-516): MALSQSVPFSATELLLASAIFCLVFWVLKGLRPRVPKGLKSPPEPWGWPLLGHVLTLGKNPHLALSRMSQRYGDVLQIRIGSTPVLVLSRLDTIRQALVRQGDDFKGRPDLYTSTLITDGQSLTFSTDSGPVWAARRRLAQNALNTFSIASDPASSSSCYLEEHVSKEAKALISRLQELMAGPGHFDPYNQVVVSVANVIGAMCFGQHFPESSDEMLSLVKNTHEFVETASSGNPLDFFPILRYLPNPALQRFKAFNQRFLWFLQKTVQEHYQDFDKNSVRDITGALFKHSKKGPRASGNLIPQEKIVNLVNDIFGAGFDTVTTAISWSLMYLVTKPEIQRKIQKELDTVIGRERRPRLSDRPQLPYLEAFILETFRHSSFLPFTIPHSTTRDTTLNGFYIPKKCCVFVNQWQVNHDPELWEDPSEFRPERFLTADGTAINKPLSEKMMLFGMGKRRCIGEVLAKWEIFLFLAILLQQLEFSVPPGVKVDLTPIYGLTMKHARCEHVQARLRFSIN
Experimental: as §1

CYP 2C8 = molecular target: T6, CYP 2C8 (Homo sapiens, UniProt P10632); experiment: CYP inhibition in human liver microsomes, 2C8; format: in vitro ADME; settings: pH 7.4, @ 10 μM concn
T6 construct: from tissue; host or cells: human liver microsomes
T6 sequence (P10632 1-490): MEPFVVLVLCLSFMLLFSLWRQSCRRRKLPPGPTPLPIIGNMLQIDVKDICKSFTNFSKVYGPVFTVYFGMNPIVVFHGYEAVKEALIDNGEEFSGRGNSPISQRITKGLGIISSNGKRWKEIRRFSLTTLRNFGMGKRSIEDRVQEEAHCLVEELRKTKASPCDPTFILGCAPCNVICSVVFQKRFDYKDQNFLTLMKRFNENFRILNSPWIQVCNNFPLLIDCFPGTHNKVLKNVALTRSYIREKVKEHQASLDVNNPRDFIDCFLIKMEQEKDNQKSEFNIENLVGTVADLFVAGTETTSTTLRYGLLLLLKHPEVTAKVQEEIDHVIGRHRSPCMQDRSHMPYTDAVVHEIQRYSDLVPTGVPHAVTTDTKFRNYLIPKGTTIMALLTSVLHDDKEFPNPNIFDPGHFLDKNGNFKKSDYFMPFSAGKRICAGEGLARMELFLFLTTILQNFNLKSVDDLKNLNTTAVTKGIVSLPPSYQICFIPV
Experimental: as §1

CYP 2C9 = molecular target: T7, CYP 2C9 (Homo sapiens, UniProt P11712); experiment: CYP inhibition in human liver microsomes, 2C9; format: in vitro ADME; settings: pH 7.4, @ 10 μM concn
T7 construct: from tissue; host or cells: human liver microsomes
Experimental: as §1

T1 sequence (P33261 whole entry): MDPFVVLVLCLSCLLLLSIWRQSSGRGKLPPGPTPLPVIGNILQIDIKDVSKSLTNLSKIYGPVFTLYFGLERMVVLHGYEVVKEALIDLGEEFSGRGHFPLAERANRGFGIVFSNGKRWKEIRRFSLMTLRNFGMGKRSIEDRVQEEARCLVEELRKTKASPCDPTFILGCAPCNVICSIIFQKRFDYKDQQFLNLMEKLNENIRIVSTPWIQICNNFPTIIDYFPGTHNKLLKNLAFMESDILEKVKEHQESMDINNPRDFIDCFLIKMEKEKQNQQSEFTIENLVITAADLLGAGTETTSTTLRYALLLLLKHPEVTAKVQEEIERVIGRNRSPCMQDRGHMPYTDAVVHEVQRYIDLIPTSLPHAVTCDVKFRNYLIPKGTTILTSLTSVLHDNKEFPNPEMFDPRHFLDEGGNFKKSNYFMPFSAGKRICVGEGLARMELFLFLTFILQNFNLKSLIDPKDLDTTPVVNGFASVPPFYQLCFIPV
T7 sequence (P11712 whole entry): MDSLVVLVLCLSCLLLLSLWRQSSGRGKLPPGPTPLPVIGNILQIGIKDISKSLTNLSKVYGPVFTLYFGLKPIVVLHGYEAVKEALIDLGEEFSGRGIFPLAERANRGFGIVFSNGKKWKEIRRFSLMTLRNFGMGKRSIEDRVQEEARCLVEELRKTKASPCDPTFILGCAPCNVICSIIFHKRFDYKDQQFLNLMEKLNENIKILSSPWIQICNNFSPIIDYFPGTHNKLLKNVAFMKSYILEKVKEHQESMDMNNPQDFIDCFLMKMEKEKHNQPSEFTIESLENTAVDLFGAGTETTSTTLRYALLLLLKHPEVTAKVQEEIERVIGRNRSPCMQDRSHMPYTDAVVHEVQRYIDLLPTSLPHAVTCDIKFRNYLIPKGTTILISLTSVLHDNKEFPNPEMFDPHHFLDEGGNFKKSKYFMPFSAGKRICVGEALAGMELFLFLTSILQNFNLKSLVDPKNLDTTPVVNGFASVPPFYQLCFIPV
T3 sequence (P10635 whole entry): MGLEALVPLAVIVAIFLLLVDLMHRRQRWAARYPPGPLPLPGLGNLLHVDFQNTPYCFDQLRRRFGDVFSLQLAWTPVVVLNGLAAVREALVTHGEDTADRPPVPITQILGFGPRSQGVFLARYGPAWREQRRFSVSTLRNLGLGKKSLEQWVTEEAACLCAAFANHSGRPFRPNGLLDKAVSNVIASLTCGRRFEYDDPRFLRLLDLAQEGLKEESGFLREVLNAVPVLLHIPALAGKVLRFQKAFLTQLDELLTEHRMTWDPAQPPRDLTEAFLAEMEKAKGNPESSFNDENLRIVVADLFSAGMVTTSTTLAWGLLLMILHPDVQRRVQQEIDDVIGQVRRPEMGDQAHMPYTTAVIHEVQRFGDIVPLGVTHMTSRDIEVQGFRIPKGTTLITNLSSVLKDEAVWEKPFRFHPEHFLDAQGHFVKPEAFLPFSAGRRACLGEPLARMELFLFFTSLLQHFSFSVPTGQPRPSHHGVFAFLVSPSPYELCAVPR
T2 sequence (Q06187 whole entry): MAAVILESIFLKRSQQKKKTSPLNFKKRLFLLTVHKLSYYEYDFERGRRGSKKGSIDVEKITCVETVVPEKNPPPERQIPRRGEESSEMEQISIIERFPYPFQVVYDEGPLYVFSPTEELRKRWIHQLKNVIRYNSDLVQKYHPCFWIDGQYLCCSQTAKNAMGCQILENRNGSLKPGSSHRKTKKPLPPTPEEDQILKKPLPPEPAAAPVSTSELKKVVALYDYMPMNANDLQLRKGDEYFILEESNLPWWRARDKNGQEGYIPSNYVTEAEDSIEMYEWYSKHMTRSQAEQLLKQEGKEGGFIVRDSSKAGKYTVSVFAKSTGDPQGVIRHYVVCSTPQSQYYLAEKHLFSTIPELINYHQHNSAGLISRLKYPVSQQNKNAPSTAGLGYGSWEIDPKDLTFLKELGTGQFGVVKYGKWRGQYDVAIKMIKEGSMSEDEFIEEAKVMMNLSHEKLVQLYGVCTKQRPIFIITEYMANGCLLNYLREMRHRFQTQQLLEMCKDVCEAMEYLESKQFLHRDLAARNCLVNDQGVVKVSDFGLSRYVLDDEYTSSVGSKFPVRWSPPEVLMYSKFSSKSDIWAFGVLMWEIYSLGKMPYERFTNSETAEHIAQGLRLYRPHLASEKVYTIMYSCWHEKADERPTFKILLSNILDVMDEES
T4 sequence (P08684 whole entry): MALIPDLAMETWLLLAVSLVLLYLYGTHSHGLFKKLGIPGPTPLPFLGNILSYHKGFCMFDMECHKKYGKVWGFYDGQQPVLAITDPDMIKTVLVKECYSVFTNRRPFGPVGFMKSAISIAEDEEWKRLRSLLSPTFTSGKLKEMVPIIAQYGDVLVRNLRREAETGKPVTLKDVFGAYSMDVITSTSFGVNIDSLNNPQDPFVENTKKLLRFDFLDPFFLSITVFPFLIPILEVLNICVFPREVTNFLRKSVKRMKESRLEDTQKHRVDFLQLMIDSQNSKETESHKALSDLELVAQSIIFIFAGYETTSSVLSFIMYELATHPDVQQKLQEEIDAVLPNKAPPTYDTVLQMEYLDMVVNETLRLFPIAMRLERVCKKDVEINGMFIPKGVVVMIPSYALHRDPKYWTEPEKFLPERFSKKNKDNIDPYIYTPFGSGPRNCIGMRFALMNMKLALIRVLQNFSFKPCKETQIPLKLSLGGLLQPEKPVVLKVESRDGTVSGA

SMILES	inhibition at 10 μM (CYP 2C19)	IC50 [1]	inhibition at 10 μM (CYP 2D6)	inhibition at 10 μM (CYP 3A4)	inhibition at 10 μM (CYP 1A2)	inhibition at 10 μM (CYP 2C8)	inhibition at 10 μM (CYP 2C9)
C=CC(=O)N1CC2CC(n3nc(-c4ccc(C(=O)Nc5cc(C(F)(F)F)ccn5)cc4)c4c(N)ncnc43)CC2C1 (stereo not shown) [Compound 40, 4-(1-(2-acryloyloctahydrocyclopenta[c]pyrrol-5-yl)-4-amino-1H-pyrazolo[3,4-d]pyrimidin-3-yl)-N-(4-(trifluoromethyl)pyridin-2-yl)benzamide]	< 50%	6 nM	< 50%	< 50%	> 50%	< 50%	> 50%
C=CC(=O)N1CC2CC(n3nc(-c4ccc5c(c4)OC(F)(F)O5)c4c(N)ncnc43)CC2C1 (stereo not shown) [Compound 36, 1-(5-(4-amino-3-(2,2-difluorobenzo[d] [1,3]dioxol-5-yl)-1H-pyrazolo [3,4-d]pyrimidin-1-yl)hexahydrocyclopenta[c]pyrrol-2(1H)-yl)prop-2-en-1-one]	< 50%	1.1 nM	< 50%	< 50%	< 50%	< 50%	< 50%
C=CC(=O)N1CC2CC(n3nc(-c4ccc(Oc5ccccn5)cc4)c4c(N)ncnc43)CC2C1 (stereo not shown) [Compound 43, 1-(5-(4-amino-3-(4-(pyridin-2-yloxy)phenyl)-1H-pyrazolo[3,4-d]pyrimidin-1-yl)hexahydrocyclopenta[c]pyrrol-2(1H)-yl)prop-2-en-1-one]	< 50%	2 nM	< 50%	< 50%	< 50%	< 50%	< 50%
C=CC(=O)N1CC2CC(n3nc(-c4ccc5c(c4)CCS5)c4c(N)ncnc43)CC2C1 (stereo not shown) [Compound 7, 1-(5-(4-amino-3-(2,3-dihydrobenzo[b]thiophen-5-yl)-1H-pyrazolo [3,4-d]pyrimidin-1-yl)hexahydrocyclopenta[c]pyrrol-2(1H)-yl)prop-2-en-1-one]	< 50%	6 nM	< 50%	> 50%	< 50%	< 50%	> 50%
C=CC(=O)N1CC2CC(n3nc(-c4ccc(C(=O)Nc5nc6ccccc6s5)cc4)c4c(N)ncnc43)CC2C1 (stereo not shown) [Compound 34, 4-(1-(2-acryloyloctahydrocyclopenta[c]pyrrol-5-yl)-4-amino-1H-pyrazolo[3,4-d]pyrimidin-3-yl)-N-(benzo[d]thiazol-2-yl)benzamide]	> 50%	359 nM	< 50%	> 50%	> 50%	< 50%	< 50%
C=CC(=O)N1CC2CN(CCn3nc(-c4ccc(Oc5ccccc5)cc4)c4c(N)ncnc43)CC2C1 (stereo not shown) [Compound 4, 1-(5-(2-(4-amino-3-(4-phenoxyphenyl)-1H-pyrazolo[3,4-d]pyrimidin-1-yl)ethyl)hexahydropyrrolo[3,4-c]pyrrol-2(1H)-yl)prop-2-en-1-one]	< 50%	2 nM	< 50%	< 50%	< 50%	< 50%	< 50%

Continued by falling IC50 [1], values first:

inhibition at 10 μM (CYP 2C19)	IC50 [1]	inhibition at 10 μM (CYP 2D6)	inhibition at 10 μM (CYP 3A4)	inhibition at 10 μM (CYP 1A2)	inhibition at 10 μM (CYP 2C8)	inhibition at 10 μM (CYP 2C9)	SMILES
> 50%	80 nM	< 50%	> 50%	< 50%	> 50%	> 50%	Cc1ccnc(N(C)C(=O)c2ccc(-c3nn(C4CC5CN(C(=O)/C=C/CN(C)C)CC5C4)c4ncnc(N)c34)cc2)c1 (stereo not shown) [Compound 55, (E)-4-(4-amino-1-(2-(4-(dimethylamino)but-2-enoyl)octahydrocyclopenta [c]pyrrol-5-yl)-1H-pyrazolo[3,4-d]pyrimidin-3-yl)-N-methyl-N-(4-methylpyridin-2-yl)benzamide]
< 50%	16 nM	< 50%	> 50%	< 50%	< 50%	> 50%	N#C/C(=C\C1CC1)C(=O)N1CC2CC(n3nc(-c4ccc(Oc5ccccc5)cc4)c4c(N)ncnc43)CC2C1 (stereo not shown) [Compound 28, (E)-2-(5-(4-amino-3-(4-phenoxyphenyl)-1H-pyrazolo[3,4-d]pyrimidin-1-yl)octahydrocyclopenta[c]pyrrole-2-carbonyl)-3-cyclopropylacrylonitrile]
< 50%	3 nM	< 50%	< 50%	< 50%	< 50%	< 50%	CN(C)C/C=C/C(=O)N1CC2CC(n3nc(-c4ccc(Oc5ccccn5)cc4)c4c(N)ncnc43)CC2C1 (stereo not shown) [Compound 47, (E)-1-(5-(4-amino-3-(4-(pyridin-2-yloxy)phenyl)-1H-pyrazolo[3,4-d]pyrimidin-1-yl)hexahydrocyclopenta[c]pyrrol-2(1H)-yl)-4-(dimethylamino)but-2-en-1-one]
< 50%	1.7 nM	< 50%	< 50%	< 50%	< 50%	< 50%	C=CC(=O)N1CC2CC(n3nc(-c4ccc(-c5nnc(C)o5)cc4)c4c(N)ncnc43)CC2C1 (stereo not shown) [Compound 16, 1-(5-(4-amino-3-(4-(5-methyl-1,3,4-oxadiazol-2-yl)phenyl)-1H-pyrazolo[3,4-d]pyrimidin-1-yl)hexahydrocyclopenta[c]pyrrol-2(1H)-yl)prop-2-en-1-one]
